These molecules were tested against Heat shock protein HSP 90-alpha (Homo sapiens, UniProt P07900) (assay: FRET Assay). Settings: pH 7.5; 25 °C.

Point of comparison: `Nc1nc(Cl)cc(-c2ccc(Cl)cc2Cl)n1` [HSP90 Inhibitor, 5], Ki 60 nM. Against it:
- Cc1cc(-c2ccc(Cl)cc2Cl)nc(N)n1 [HSP90 Inhibitor, 4] — 2.8-fold higher, 170 nM
- Cc1cc(C=Cc2ccccc2/C=N/N2CCOC2=O)nc(N)n1 [HSP90 Inhibitor, 7] — 67-fold higher, 4000 nM

From BindingDB's records for doi:10.1111/j.1747-0285.2007.00535.x (Abbott Laboratories, 2007)
